Consider 2 compounds from patent US20050004007A1, “Promotion of adoptosis in cancer cells by co-administration of cyclin dependent kinase inhibitiors and cellular differentiation agents” (priority 2000, published 2005).

One experiment concerns histones H3 and H4. The experiment is described as follows: acetylated histone Western (HDAC assay) in U937 cells. Type of experiment: cell-based, human. As to conditions: 1 mM SB, 100 nM FP. The procedure: Histone Deacetylase (HDAC) Assay. Acid extraction of proteins from treated cells and detection of acetylated histones H3 and H4 by Western blot analysis was performed per the manufacturer's instructions (Upstate Biotechnology). 10 μg of extract was loaded per lane and separated on pre-cast 4-20% Biorad Gradient Gels.

The subject of experiment [1] is U937 human leukemia cells. The experiment is described as follows: morphological assessment of apoptosis (Wright and Giemsa-stained cytospin). The format is cell-based. The text has this:
(§1) Cell culture. The myelomonocytic leukemia cell line U937 was derived from a patient with histiocytic lymphoma and was obtained from American Type Culture Collection. The HL-60 cell line was derived from a patient with acute promyelocytic leukemia as previously described [Grant et al. 1992]. U937 and HL-60 cells were maintained in logarithmic growth phase by culturing in suspension in phenol red-free RPMI-1640 (Life Technologies, Inc., Grand Island, N.Y.) and 10% (v/v) fetal calf serum (Hyclone, Logan, Utah), in a humidified atmosphere (95% air/5% CO2) at 37° C. To obtain antisense-expressing cell lines, U937 cells were transfected by electroporation with a pREP4 vector (Invitrogen; Carlsbad, Calif.) or the pREP4 vector containing the p21^WAF1/CIP1 coding region in an antisense orientation as previously described [Wang et al. 1999]. […]
(§2) Morphological assessment of apoptosis. U937 cells were evaluated for apoptosis by morphological assessment of Wright and Giemsa-stained cytospin preparations. At designated times, cells were transferred to slides by cytocentrifugation, fixed, stained, and evaluated under light microscopy for treatment-induced apoptosis. […] Five or more randomly selected fields, encompassing a total≧500 cells/slide, were evaluated to determine the percentage of apoptotic cells for each treatment condition.

Experiment [2] concerns HL-60 human promyelocytic leukemia cells. The experiment is described as follows: morphological assessment of apoptosis. The format is cell-based. The conditions noted are these: 3, 5, or 10 μM ATRA, 80 nM FP.
Description: as §1, §2

In experiment [3] the test system is U937 myelomonocytic human leukemia cells. The experiment can be described thus: percent cell death. The format is cell-based. The conditions noted are these: 1 μM SAHA, 100 nM FP, 24 hours after administration.
Experiment [4] deals with HL60 human leukemia cells. The experiment can be described thus: loss of mitochondrial membrane potential (DiOC6 uptake). The conditions noted are these: 3, 5, or 10 μM ATRA and 80 nM FP. Type of experiment: cell-based. As for the experimental part:
Assessment of mitochondrial membrane potential. At designated times, 1 ml aliquots of cells (2×10^5) were harvested and incubated with 40 nM DiOC6 for 15 minutes at 25° C. as previously described [Zamzami et al 1995]or at 37° C. Samples were analyzed using a Becton Dickinson FACScan flow cytometer (excitation λ=488 nm; emission λ=525 nm). […] Data acquisition and analysis was performed using […] Software (Becton Dickinson, Mansfield, Mass.).

For another experiment, the system named is ERK1/2. The experiment is described as follows: Western analysis of phosphorylated p44/p42 MAPK in U937 cells. As to conditions: 10 nM PMA, 100 nM FP, 30 min-6 h. The format is cell-based, human. As for the experimental part: Western analysis. Equal quantities of protein (15 μg/condition for MAPK, 40 μg/condition for cytochrome c, or 25 μg/condition) were separated by SDS-PAGE [underphosporylated pRB (7.5%), poly(ADP-ribose)polymerase or PARP (8.0%), p44/p42 MAPK (10%), p21, p27, procaspase 3 (12%), and cytochrome c (15%)] and electroblotted onto nitrocellulose. Western analysis of p44/p42 MAPK protein was performed according to the manufacturer's instructions (New England Biolabs); otherwise, studies were performed as previously described [Wang et al, 1998]. Briefly, U937 cells (5×10^6) were pelleted by centrifugation, resuspended in 50 μl PBS, lysed by the addition of 2× Laemmli buffer and boiled for 5 min. Proteins were quantified with Coomassie protein assay reagent. Blots were blocked in PBS-T/5% milk, washed twice with PBS-T, and incubated overnight at 4° C. with the appropriate primary antibody. The blots were washed with PBS-T and incubated with a horseradish-peroxidase conjugated secondary antibody diluted appropriately in PBS-T/5% mill. Following incubation, blots were developed by enhanced chemiluminescence exposure to Kodak X-OMAT film (Eastman Kodak Co., Rochester, N.Y.) and reprobed with antibodies directed against actin to control for equal loading of protein.

Where only a bound is given, the exact number is not on record here.

For the compound `CCCC(=O)[O-].[Na+]` [SB, sodium butyrate], the “acetylation of histones H3 and H4” value in the experiment with histones H3 and H4 is “Acetylation of H3 and H4 was observed”.
`CN1CC[C@H](c2c(O)cc(O)c3c(=O)cc(-c4ccccc4Cl)oc23)[C@H](O)C1` [FP, Flavopiridol]: the “percentage of apoptotic cells” value in experiment [1] (FP concentrations ≦100 nM, regardless of treatment interval (6-24 h)) is recorded as ≤ 10%. Further, the induction of apoptosis entry in experiment [1] (FP concentrations ≧200 nM, chronic exposures (12 or 24 h)) was “susceptible to apoptosis”. For the same compound, the “% apoptosis” value in experiment [2] is on record as “minimal effect”. Moreover, the cell death result in experiment [3] is listed as “modest level of cell death”. The “loss of mitochondrial membrane potential (Δψm)” value in experiment [4] was “no effect”. Besides, the “phosphorylation (activation) of ERK1/2” value in the experiment with ERK1/2 is “modestly increased ERK activation”.
